According to ChEMBL document CHEMBL5143564, “PES derivative PESA is a potent tool to globally profile cellular targets of PES” (Bioorg Med Chem Lett, 2022):
Active and inactive are the calls of the source. No cut-off for these calls is given here.

What was measured:
[1] = target: Coronin-1A (Homo sapiens) (UniProt P31146); test: Binding affinity to coronin-1A in human MDA-MB-453 cells measured after 6 hrs by pull-down assay; format: cell-based; conditions: dose <= 20.0 µM, DDE = dose-dependent effect
[2] = GSH reactivity in pH 7.4 buffer assessed as GSH adduct formation by measuring molecular weight at 1 mM by Q-TOF LC/MS analysis; format: physicochemical; conditions: pH 7.4, 1000 µM
Homo sapiens = species on record: Homo sapiens; test: Binding affinity to ADP-bound full-length human HSP70 by TAMRA-azide based fluorescence imaging analysis; conditions: dose 0.2-20 µM, DDE = dose-dependent effect
HEK-293T = test: Cytotoxicity against HEK293T cells up to 20 uM measured after 24 hrs; format: toxicity, cell-based; conditions: human
Jurkat = test: Cytotoxicity against human Jurkat T cells up to 20 uM measured after 24 hrs; format: functional, cell-based
DOHH-2 [3] = test: Cytotoxicity against human DOHH-2 cells up to 20 uM measured after 24 hrs; format: functional, cell-based
DOHH-2 [4] = test: Induction of apoptosis in human DOHH-2 cells assessed as increase in cleaved PARP expression at 0.5 to 8 uM measured after 24 hrs by Western blot analysis; format: functional, cell-based; conditions: dose 0.5-8 µM
DOHH-2 [5] = test: Induction of autophagy in human DOHH-2 cells assessed as reduction in p62 expression at 0.5 to 8 uM measured after 24 hrs by Western blot analysis; format: functional, cell-based; conditions: dose 0.5-8 µM
DOHH-2 [6] = test: Induction of autophagy in human DOHH-2 cells assessed as change in transformation of LC3B1 to LC3B2 expression at 8 uM measured after 4 to 24 hrs by Western blot analysis; format: functional, cell-based; conditions: time 4-24 hrs
DOHH-2 [7] = test: Up regulation of HSP70 expression in human DOHH-2 cells at 0.5 to 8 uM measured after 24 hrs by Western blot analysis; format: functional, cell-based; conditions: dose 0.5-8 µM
[8] = target: Coronin-1A (Homo sapiens) (UniProt P31146); test: Binding affinity to coronin-1A in human DOHH-2 cells measured after 6 hrs by pull-down assay; format: cell-based; conditions: DDE = dose-dependent effect
[9] = target: Elongation factor 2 (Homo sapiens) (UniProt P13639); test: Binding affinity to elongation factor 2 in human DOHH-2 cells measured after 6 hrs by pull-down assay; format: cell-based; conditions: DDE = dose-dependent effect
[10] = target: T1, Peroxiredoxin-2 (Homo sapiens) (UniProt P32119); test: Binding affinity to PRDX2 in human DOHH-2 cells measured after 6 hrs by pull-down assay; format: cell-based; conditions: DDE = dose-dependent effect
T1 sequence (whole entry): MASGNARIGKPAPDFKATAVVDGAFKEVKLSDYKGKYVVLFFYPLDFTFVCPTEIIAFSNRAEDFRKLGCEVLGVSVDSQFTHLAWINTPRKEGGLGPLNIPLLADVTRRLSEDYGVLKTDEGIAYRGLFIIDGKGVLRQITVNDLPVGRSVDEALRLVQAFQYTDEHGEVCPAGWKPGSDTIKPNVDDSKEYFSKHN

[11] = target: T2, Glutathione S-transferase omega-1 (Homo sapiens) (UniProt P78417); test: Binding affinity to GSTO1 in human DOHH-2 cells measured after 6 hrs by pull-down assay; format: cell-based; conditions: DDE = dose-dependent effect
T2 sequence (whole entry): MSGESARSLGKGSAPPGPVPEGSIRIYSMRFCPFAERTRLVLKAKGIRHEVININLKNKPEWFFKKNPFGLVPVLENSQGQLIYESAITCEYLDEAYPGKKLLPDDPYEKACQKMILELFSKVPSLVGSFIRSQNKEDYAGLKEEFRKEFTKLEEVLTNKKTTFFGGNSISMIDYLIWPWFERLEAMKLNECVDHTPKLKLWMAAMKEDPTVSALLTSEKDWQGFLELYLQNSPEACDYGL

[12] = target: Glutathione S-transferase 3, mitochondrial (Homo sapiens) (UniProt O14880); test: Binding affinity to MGST3 in human DOHH-2 cells measured after 6 hrs by pull-down assay; format: cell-based; conditions: DDE = dose-dependent effect
[13] = target: T3, Protein disulfide-isomerase A6 (Homo sapiens) (UniProt Q15084); test: Binding affinity to PDIA6 in human MDA-MB-453 cells measured after 6 hrs by pull-down assay; format: cell-based; conditions: dose <= 20.0 µM, DDE = dose-dependent effect
T3 sequence (whole entry): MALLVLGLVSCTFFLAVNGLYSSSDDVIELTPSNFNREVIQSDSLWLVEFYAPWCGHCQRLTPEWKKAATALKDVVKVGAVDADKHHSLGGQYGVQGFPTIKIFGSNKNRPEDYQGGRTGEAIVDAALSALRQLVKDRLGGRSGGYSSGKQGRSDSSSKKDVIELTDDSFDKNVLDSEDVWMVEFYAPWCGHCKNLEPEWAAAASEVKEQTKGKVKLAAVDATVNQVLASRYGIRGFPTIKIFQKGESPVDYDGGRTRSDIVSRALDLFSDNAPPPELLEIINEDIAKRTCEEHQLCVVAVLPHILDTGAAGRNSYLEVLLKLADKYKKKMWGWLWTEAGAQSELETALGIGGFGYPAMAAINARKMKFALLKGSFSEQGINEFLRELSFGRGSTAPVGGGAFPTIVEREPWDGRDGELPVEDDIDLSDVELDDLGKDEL

[14] = target: T2, Glutathione S-transferase omega-1 (Homo sapiens); test: Binding affinity to GSTO1 in human MDA-MB-453 cells measured after 6 hrs by pull-down assay; format: cell-based; conditions: dose <= 20.0 µM, DDE = dose-dependent effect
[15] = target: Glutathione S-transferase 3, mitochondrial (Homo sapiens) (UniProt O14880); test: Binding affinity to MGST3 in human MDA-MB-453 cells measured after 6 hrs by pull-down assay; format: cell-based; conditions: dose <= 20.0 µM, DDE = dose-dependent effect
[16] = target: Tubulin alpha (Homo sapiens) (UniProt P0DPH7+P68366+Q71U36+P68363+Q9BQE3+Q6PEY2+A6NHL2+Q9NY65); test: Binding affinity to alpha-tubulin in human DOHH-2 cells by MS analysis; format: cell-based
[17] = target: T4, Thioredoxin-dependent peroxide reductase, mitochondrial (Homo sapiens) (UniProt P30048); test: Binding affinity to PRDX3 in human DOHH-2 cells by MS analysis; format: cell-based
T4 sequence (whole entry): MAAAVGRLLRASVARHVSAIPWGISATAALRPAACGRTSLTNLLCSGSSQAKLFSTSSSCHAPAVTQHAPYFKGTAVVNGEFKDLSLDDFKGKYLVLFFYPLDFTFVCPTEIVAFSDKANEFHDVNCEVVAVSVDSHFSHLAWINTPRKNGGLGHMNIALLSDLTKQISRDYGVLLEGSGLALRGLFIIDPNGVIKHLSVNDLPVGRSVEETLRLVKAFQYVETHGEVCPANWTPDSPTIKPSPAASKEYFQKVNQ

[18] = target: T5, Peroxiredoxin-6 (Homo sapiens) (UniProt P30041); test: Binding affinity to PRDX6 in human DOHH-2 cells by MS analysis; format: cell-based
T5 sequence (whole entry): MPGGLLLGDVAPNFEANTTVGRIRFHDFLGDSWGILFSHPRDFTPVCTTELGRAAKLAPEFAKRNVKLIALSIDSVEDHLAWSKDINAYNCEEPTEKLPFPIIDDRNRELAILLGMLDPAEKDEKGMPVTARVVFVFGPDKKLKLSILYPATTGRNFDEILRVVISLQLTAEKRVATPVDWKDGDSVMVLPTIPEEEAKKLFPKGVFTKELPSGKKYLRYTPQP

[19] = target: Glutathione S-transferase 3, mitochondrial (Homo sapiens) (UniProt O14880); test: Binding affinity to MGST3 in human DOHH-2 cells by MS analysis; format: cell-based

Chain of Glutathione S-transferase 3, mitochondrial (Homo sapiens) (O14880 whole entry): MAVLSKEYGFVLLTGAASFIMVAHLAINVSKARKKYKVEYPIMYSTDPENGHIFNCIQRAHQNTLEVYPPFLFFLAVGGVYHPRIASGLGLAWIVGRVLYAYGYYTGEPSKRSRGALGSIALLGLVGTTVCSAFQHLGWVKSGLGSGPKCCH
Chain of Coronin-1A (Homo sapiens) (P31146 whole entry): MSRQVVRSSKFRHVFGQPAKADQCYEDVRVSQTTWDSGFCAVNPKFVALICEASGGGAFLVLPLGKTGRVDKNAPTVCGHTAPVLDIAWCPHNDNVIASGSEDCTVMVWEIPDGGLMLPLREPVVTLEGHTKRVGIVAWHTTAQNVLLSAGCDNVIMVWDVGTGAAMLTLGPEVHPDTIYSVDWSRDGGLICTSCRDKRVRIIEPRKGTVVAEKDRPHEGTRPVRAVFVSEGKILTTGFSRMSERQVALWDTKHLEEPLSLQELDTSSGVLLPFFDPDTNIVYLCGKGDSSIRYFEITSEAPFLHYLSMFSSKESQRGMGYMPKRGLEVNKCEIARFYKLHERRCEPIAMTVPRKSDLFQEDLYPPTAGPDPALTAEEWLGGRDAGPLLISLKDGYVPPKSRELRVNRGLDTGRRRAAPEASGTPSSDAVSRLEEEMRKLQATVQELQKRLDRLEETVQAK

Activity [1]: Dde
Activity [2]: 513 Da
Activity (Homo sapiens): Dde
Activity [8]: Dde
Activity [9]: Dde
Activity [10]: Dde
Activity [11]: Dde
Activity [12]: Dde
Activity [13]: Dde
Activity [14]: Dde
Activity [15]: Dde
Activity [16]: Active
Activity [17]: Active
Activity [18]: Active
Activity [19]: Active
Compound: C#Cc1cccc(C#CS(N)(=O)=O)c1
Activity (HEK-293T): Non-Toxic
Activity (Jurkat): Active
Activity (DOHH-2 [3]): Active
Activity (DOHH-2 [4]): Active
Activity (DOHH-2 [5]): Active
Activity (DOHH-2 [6]): Active
Activity (DOHH-2 [7]): Active
